Source: US6613765B1, “Use of NK-1 receptor antagonists for treating major depressive disorders” (Merck Sharp & Dohme Limited, priority 1996, dated 2003)
pIC50: −log10 of the molar value.

How the values were obtained:
[1] = molecular target: T1, human NK-1 receptor (Homo sapiens, UniProt P25103); assay: NK-1 receptor binding (125I-Tyr8-substance P, intact CHO cells); settings: CHO cells expressing the human NK-1 receptor
T1 construct: expressed in transfected cells; host or cells: CHO (Chinese hamster ovary) cells, intact
T1 sequence (P25103 whole entry): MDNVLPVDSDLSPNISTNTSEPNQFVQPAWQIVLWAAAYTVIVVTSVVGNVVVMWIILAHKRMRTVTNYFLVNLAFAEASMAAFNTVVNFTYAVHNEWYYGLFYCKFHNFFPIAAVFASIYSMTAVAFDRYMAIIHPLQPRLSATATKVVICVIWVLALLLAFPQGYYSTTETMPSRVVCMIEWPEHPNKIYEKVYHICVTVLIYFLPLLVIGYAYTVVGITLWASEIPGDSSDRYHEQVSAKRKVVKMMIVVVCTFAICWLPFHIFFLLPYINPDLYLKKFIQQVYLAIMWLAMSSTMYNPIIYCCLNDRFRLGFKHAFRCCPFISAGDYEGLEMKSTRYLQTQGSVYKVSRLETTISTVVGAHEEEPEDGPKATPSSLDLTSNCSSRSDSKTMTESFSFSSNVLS
Description: NK-1 receptor binding assays are performed in intact Chinese hamster ovary (CHO) cells expressing the human NK-1 receptor using a modification of the assay conditions described by Cascieri et al, J. Pharmacol. Exp. Ther., 1992, 42, 458. Typically, the receptor is expressed at a level of 3×10^5 receptors per cell. Cells are grown in monolayer culture, detached from the plate with enzyme-free dissociation solution (Speciality Media Inc.), and washed prior to use in the assay. ^125I-Tyr^8-substance P (0.1 nM, 2000 Ci/mmol; New England Nuclear) is incubated in the presence or absence of test compounds (dissolved in 5 μl dimethylsulphoxide, DMSO) with 5×10^4 CHO cells. Ligand binding is performed in 0.25 ml of 50 mM Tris-HCl, pH 7.5, containing 5 mM MnCl2, 150 mM NaCl, 0.02% bovine serum albumin (Sigma), 50 μg/ml chymostatin (Peninsula), 0.1 nM phenylmethylsulphonyl fluoride, 2 μg/ml pepstatin, 2 μg/ml leupeptin and 2.8 μg/ml furoyl saccharine. The incubation proceeds at room temperature until equilibrium is achieved (>40 minutes) and the receptor-ligand complex is harvested by filtration over GF/C filters pre-soaked in 0.1% polyethylenimine using a Tomtek 96-well harvester. Non-specific binding is determined using excess substance P (1 μM and represents <10% of total binding.

[2] = tested on: foot tapping in gerbils induced by central injection of an NK1 agonist; assay: Gerbil foot-tapping induced by central infusion of NK-1 receptor agonist GR73632; format: in vivo, Mongolian gerbils; settings: i.v.
From the text: ASSAY 2: Gerbil Foot-tapping
CNS-penetrant NK-1 receptor antagonists for use in the present invention can be identified by their ability to inhibit foot tapping in gerbils induced by anxiogenic agents (such as pentagastrin) or central infusion of NK-1 receptor agonists such as GR73632, or caused by aversive stimulation such as foot shock or single housing, based on the method of Rupniak & Williams, Eur. J. Pharmacol., 1994, 265, 179.
Male or female Mongolian gerbils (35-70 g) are anaesthetised by inhalation of an isoflurane/oxygen mixture to permit exposure of the jugular vein in order to permit administration of test compounds or vehicle in an injection volume of 5 ml/kg i.v. Alternatively, test compounds may be administered orally or by subcutaneous or intraperitoneal routes. A skin incision is then made in the midline of the scalp to expose the skull. […]

[3] = tested on: separation-induced vocalisations by guinea-pig pups; assay: Separation-induced vocalisation in guinea-pig pups; format: in vivo; settings: p.o.
Description: ASSAY 4: Separation-induced Vocalisation
On test days each pup receives an oral dose or an s.c. or i.p. injection of test compound or vehicle and is then immediately returned to the home cage with its mother and siblings for 30 to 60 minutes (or for up to 4 hours following an oral dose, dependent upon the oral pharmacokinetics of the test compound) before social isolation for 15 minutes as described above. […] Between 6 and 8 animals receive each test compound at each dose tested.

Compound	melting point [°C]	pIC50 [1]	gerbil foot-tapping (5 mins.): ID50 ([2]; 5 mins.)	gerbil foot-tapping (24 hrs.): ID60 ([2]; 24 hrs. prior to agonist challenge)	guinea-pig vocalisation (4 hr. pre-treatment): ID50 [3]
Cl.FC(F)(F)Oc1ccc(OC2CC2)c([C@H]2CO[C@]3(CCCN[C@H]3c3ccccc3)C2)c1	214 to 216	–	–	–	–
OC[C@@H](O[C@H]1OCCN(Cc2nc[nH]n2)[C@H]1c1ccc(F)cc1)c1cc(C(F)(F)F)cc(C(F)(F)F)c1 [2-(R)-(1-(S)-(3,5-bis(trifluoromethyl)phenyl)-2-hydroxyethoxy)-3-(S)-(4-fluorophenyl)-4-(1,2,4-triazol-3-yl)methylmorpholine]	–	9.92	ID50 = 0.38 mg/kg i.v.	ID60 = 2.2 mg/kg i.v.	ID50 = 0.91 mg/kg p.o.
